Results reported in patent US6441205B1, “Synthetic precursors to 4-(P-methoxyphenyl)-2-amino-butane” (Council of Scientific and Industrial Research, priority 2000, dated 2002).
Like-named read-outs stand apart in the source and are kept apart here.

Experiments:
[1] = test system: 4th instar larvae of Spilarctia obliqua; test: feeding deterrency (antifeedant) bioassay, diet-mix method; assay type: in vivo, Spilarctia obliqua (Bihar hairy caterpillar); settings: for % feeding deterrency: diet-mix, fecal pellets after 24 hours; for antifeedant activity (in words): bioassay studies
Method: (§1) The compound having formula (1) was evaluated as feeding deterrent and growth inhibitor against 4th in star larvae of spilarctia obliqua (Bihar hairy caterpillar). This insect attacks more than twenty cash crops like urd, moong, arhar, mint and coleus etc. Several synthetic insecticides like quinalphos, Phosphamidon and synthetic pyrethroids are commercially used to manage this insect pest. But, the insect is developing resistance towards some of these insecticides. Therefore, it has now become imperative to search for new ecologically safe, environmentally sound and non-toxic chemicals to manage this pest.
(§2) With compound having formula (1) insect feeding deterrency and growth inhibition was tested by diet-mix method. In this method, 4-(p-methoxyphenyl)-2-aminobutane the compound having formula (1) was dissolved in acetone to make various concentrations ranging from 1000 to 5000 ppm. Test solution was mixed in the artificial diet of the insect so that each gram of diet contained 60-300 μg of the compound (1). 4th in star larva (newly molted) starved four hours, was weighed and released on treated artificial diet in thirty replications. In control, only solvent acetone was mixed and azadirachtin at 1000 ppm concentration was taken as standard for feeding bioassay. After 24 hours, number of fecal pellets produced were counted, and the data were analyzed for % feeding deterrency. Some experiments were continued for next 24 hours and weights of the larva were taken daily. After 3 days, experiment was discontinued and weight gain or loss was analyzed for % growth inhibition.
Diflubenzuron at 5 ppm was taken as a standard in case of growth inhibitory assay. The test result of compound having formula (1) in terms of its feeding deterrency and growth inhibition as compared to standards azadirachtin and diflubenzuron are given in table 1.

[2] = exposure to sun light; cited from earlier work
[3] = test system: 4th instar larvae of Spilarctia obliqua; test: growth inhibition bioassay, diet-mix method; assay type: in vivo, Spilarctia obliqua (Bihar hairy caterpillar); settings: bioassay studies
Method: as §1
as §2, with “In control, only solvent acetone was mixed and azadirachtin at 1000 ppm concentration was taken as standard for feeding bioassay.” left out, “Some experiments were continued for next 24 hours and weights of the larva were taken daily.” left out, “inhibition. […]” for “inhibition.”

[4] = sensitivity to light (UV and sunlight); assay type: physicochemical; settings: both UV and sunlight

SMILES | % feeding deterrency ([1]; 1000 ppm) [%] | sensitivity to light [2] | % feeding deterrency ([1]; 2000 ppm) [%] | % feeding deterrency ([1]; 3000 ppm) [%] | % feeding deterrency ([1]; 4000 ppm) [%] | % feeding deterrency ([1]; 5000 ppm) [%] | antifeedant activity (in words) [1] | growth inhibition activity (in words) [3] | sensitivity to light [4]
C/C=C(\C)C(=O)O[C@H]1C[C@@H](OC(C)=O)[C@@]2(C(=O)OC)CO[C@H]3[C@@H](O)[C@@](C)([C@]45O[C@@]4(C)[C@H]4C[C@@H]5O[C@@H]5OC=C[C@@]54O)[C@H]4[C@]1(CO[C@]4(O)C(=O)OC)[C@@H]32 [Azadirachtin, reference compound] | 100.0 | photosensitive | – | – | – | – | – | – | –
COc1ccc(CCC(C)N)cc1 (stereo not drawn) [Compound 1, 4-(p-methoxyphenyl)-2-amino butane] | 32.0 | – | 40.0 | 64.0 | 82.0 | 100.0 | significant activity | significant activity | not sensitive to light
CC(O)CCc1ccc(O)cc1 (stereo not drawn) [compound (2), 4-(p-hydroxyphenyl)-butan-2-ol] | – | – | – | – | – | – | not found to be active | not found to be active | –
